Laboratory results published in US20220362122A1, “Hair Treatment Compositions With Amine Derivatives” (ELC Management LLC, priority 2021, published 2022).
Entries after “also recorded” stand apart in the source; their conditions may differ. Where two headings read alike, the source gives them in different places. Marks after values point to notes of the source that are not given here.

Columns and labels:
[1] = alkalizer composition
[2] = system: keratin in hair
[3] = alkalizer composition; 22° C., T-F spindle, 6 rpm
[4] = for Lifting level normalized to NH3•H2O / Relative lifting level in percentage (LVirgin-LAlkalizer)/(LVirgin-LNaOH) / ΔL (change in color lifting) LVirgin-LAlkalizer: single alkalizer compositions, Table 5; for lifting of natural hair color, comparison in words: single alkalizer/oxidizer mixtures; for L Value: single alkalizer composition + volume 40 oxidizer developer on hair tresses, 37° C., 45 minutes, virgin 19
[5] = pH of alkalizer composition
[6] = Table 13 Serinol-Tris series, mole ratio Serinol/Tris, virgin hair 20.4
[7] = alkalizer composition: Table 2 base + alkalizer, same molar percentage

Compound | Alkalinity [1] [mL/g] | % Relative damage level compared to NaOH (TVirgin-TAlkalizer)/(TVirgin-TNaOH) [2] [%] | Damage level normalized to NH3•H2O [2] | ΔT (change in denaturation temperature) TVirgin-TAlkalizer [2] | Viscosity (cP × 10^5) [3] [cP × 10^5] | Lifting level normalized to NH3•H2O [4] | Relative lifting level in percentage (LVirgin-LAlkalizer)/(LVirgin-LNaOH) [4] [%] | ΔL (change in color lifting) LVirgin-LAlkalizer [4] | lifting of natural hair color, comparison in words [4] | pH [5] | hair damage / denaturation temperature, comparison in words [2] | L Value [4] | L* value [4, 6] | pH [5, 7] | also measured
3-Amino-1-propanol [AP] | 3.10 | 83.97 | 4.30 | 12 | 3.26 | 1.20 | 102.27 | −18 | better at lifting natural hair color than the ammonium hydroxide/oxidizer mixture; also recorded: outperformed all of them | 11.49 | – | – | – | – | Denaturation Temperature (° C.) [2]: 138.42 °C
OCCNCCO [DEA, Diethanolamine] | 2.57 | – | 0.64 | 1.79 | 5.09 | 0.77 | – | −11.5 | – | 10.35 | less damaging to hair than the ammonium hydroxide composition | – | – | – | –
[Na+].[OH-] [NaOH, reference compound] | – | 100 | 5.12 | 14.29 | – | 1.17 | 100 | −17.6 | – | – | – | 36.6* | – | – | –
NC(CO)CO [Serinol, 2-Amino-1,3-propanediol] | 2.55 | 22.32 | 1.14 | 3.19 | 10.1 | 0.80 | 68.18 | −12 | performed significantly less well than ammonium hydroxide | – | – | 31 | 31.2 | 10.22 | denaturation temperature in binary combinations, in words [2]: lowered the denaturation temperature, but only slightly; L* value ([4]; Table 10 Serinol-NH3 series, mole ratio Serinol/NH3, virgin hair 19.9): 31.2
NC(CO)(CO)CO [Tris, Tromethamine] | 2.43 | – | 0.51 | 1.42 | 4.17 | 0.53 | – | −8 | as good as tertiary alkalizer DMAP | – | also performed well | 27 | 28.5 | 9.6 | L* value ([4]; Table 9 Tris-NH3 series, mole ratio Tris/NH3, virgin hair 20.0): 28; L* value ([4]; Table 11 AMPD-Tris series, mole ratio AMPD/Tris, virgin hair 20.3): 28; L* value ([4]; Table 12 AEPD-Tris series, mole ratio AEPD/Tris, virgin hair 20.4): 28.5; L* value / color lifting in binary combinations, in words ([4]; binary combinations of alkalizers): tends to reduce the effectiveness of color lifting
Ammonium hydroxide [reference compound] | – | – | 1 | 2.79 | – | – | – | – | – | 10.72 | – | – | – | – | –
